{"source": "patent US20040076683A1", "about": "“Stealth lipid nanocapsules, methods for the preparation thereof, and use thereof as a carrier for active principle(s)” (ETHYPHARM, priority 2002, published 2004)", "test": "Solubility of paclitaxel and docetaxel in triglycerides", "type": "physicochemical", "conditions": "dissolved at 75 °C, no recrystallization at room temperature", "protocol": "A solution of docetaxel or paclitaxel in triglycerides, which will constitute the inner core of the lipid nanocapsules, is prepared by dissolving the drug into the triglyceride at 75° C. The amount of drug is adjusted in order to obtain solutions that will not recrystallize upon cooling to room temperature.", "key": {"[1]": {"conditions": "in Labrafac CC (C8 content 56.7%)"}, "[2]": {"conditions": "in Miglyol 810 N (C8 content 70.4%)"}}, "data": [{"smiles": "CC(=O)O[C@@]12CO[C@@H]1C[C@H](O)[C@@]1(C)C(=O)[C@H](O)C3=C(C)[C@@H](OC(=O)[C@H](O)[C@@H](NC(=O)OC(C)(C)C)c4ccccc4)C[C@@](O)([C@@H](OC(=O)c4ccccc4)[C@H]21)C3(C)C", "note": "[Docetaxel, docetaxel]", "values": [{"measurement": "Solubility (% w/w)", "setting": "[1]", "value": 2, "unit": "% w/w"}, {"measurement": "Solubility (% w/w)", "setting": "[2]", "value": 3.9, "unit": "% w/w"}, {"measurement": "Solubility (% w/w)", "setting": "in Tricaprylin (C8 >99%)", "value": 7, "unit": "% w/w"}]}, {"smiles": "CC(=O)O[C@H]1C(=O)[C@@]2(C)[C@H]([C@H](OC(=O)c3ccccc3)[C@]3(O)C[C@H](OC(=O)[C@H](O)[C@@H](NC(=O)c4ccccc4)c4ccccc4)C(C)=C1C3(C)C)[C@]1(OC(C)=O)CO[C@@H]1C[C@@H]2O", "note": "[Paclitaxel, paclitaxel]", "values": [{"measurement": "Solubility (% w/w)", "setting": "[1]", "value": 1.6, "unit": "% w/w"}, {"measurement": "Solubility (% w/w)", "setting": "[2]", "value": 2.7, "unit": "% w/w"}, {"measurement": "Solubility (% w/w)", "setting": "in Tricaprylin (C8 >99%)", "value": 6, "unit": "% w/w"}]}]}
